Experiment [1] addresses Boletopsis leucomelas lectin (BLL). In words: Frontal affinity chromatography (FAC) on immobilized BLL lectin column. The conditions noted are these: for affinity of BLL for pNP glycosides (in words): pNP-sugar chain 5 μM, FIG. 3(A) right. Format: binding. The procedure:
(§1) It is preferable to use the frontal affinity chromatography (FAC) method for measuring the binding constant between lectin and sugar chain.
(§2) […] each of pyridylaminated sugar chains (PA-sugar chains) is continuously poured into two buffered lectin columns at a flow rate of 0.125 ml/min. The PA-sugar chain has been diluted to the concentration (2.5 nM) which is sufficiently lower than the dissociation constant (Kd) of a lectin in a buffer solution for analysis (10 mM Tris-HCl buffer solution (pH 7.4) containing 0.8% NaCl). Elution of the PA-sugar chain from the column is detected with use of a fluorescence detector (with exciting wavelength/fluorescence wavelength: 310 nm/380 nm).
(§3) Then, the binding constant (Ka) between the sugar chain and the lectin is determined from V-V0 and Bt based on the FAC reference equation.
(§4) BLL was dissolved in 0.2M NaHCO3 buffer solution (pH 8.3) containing 0.5M NaCl, and bound with NHS-activated Sepharose (GE Healthcare Bioscience, Uppsala, Sweden) according to the operation manual of the manufacturer. The lectin-Sepharose was suspended in 10 mM Tris-HCl buffer solution (pH 7.4, TBS buffer solution) containing 0.8% NaCl, and filled in a miniature column (+2 mm×10 mm, 31.4 μl). A GSL-II lectin column was prepared in a similar manner.
(§5) A frontal affinity chromatography was carried out with use of an FAC automated analysis system (FAC-1, Shimadzu Corporation). More specifically, the lectin column prepared as described above was inserted in a stainless holder and connected to the FAC-1 system.
(§6) The flow rate and column temperature were kept at 0.125 ml/min and 25 °C, respectively. […]
(§7) Eluates of pNP-sugar chain and PA-sugar chain were monitored by measuring UV (280 nm) and fluorescence (with the exciting wavelength 310 nm and the fluorescence wave length 380 nm). A front end eluate (i.e., V-V0) was measured with respect to a standard oligosaccharide (PA-lactose). In addition, the dissociation constant (Kd) was determined from V-V0 and Bt based on the FAC reference equation. Note that the binding constant Ka is determined by the equation Ka=1/Kd.
(§8) Analysis of the concentration dependency was carried out to measure the effective ligand concentration Bt. […] Next, V-V0 (the delay of the eluted front end) was calculated in accordance with the method developed by Arata (“Application of reinforced frontal affinity chromatography and advanced processing procedure to the study of the binding property of a Caenorhabditis elegans galectin”, J Chromatogr A. 905, 337-43). A Hofstee-type plot ((V-V0) vs. (V-V0) [A]0) was created, and Bt and Kd were respectively determined from the intercept and the slope of the approximate curve. […]

Experiment [2] concerns the target Griffonia simplicifolia lectin II (GSL-II) (Griffonia simplicifolia, UniProt Q41263). As to the kind of experiment: Frontal affinity chromatography (FAC) on immobilized GSL-II lectin column. Format: binding. The conditions noted are these: for affinity of GSL-II for pNP glycosides (in words): pNP-sugar chain 5 μM, FIG. 3(A) left. The procedure:
as §1, §2, §3, §4, §5, §6, §7, §8

Sequence of Griffonia simplicifolia lectin II (GSL-II) (Q41263 entry or part of it): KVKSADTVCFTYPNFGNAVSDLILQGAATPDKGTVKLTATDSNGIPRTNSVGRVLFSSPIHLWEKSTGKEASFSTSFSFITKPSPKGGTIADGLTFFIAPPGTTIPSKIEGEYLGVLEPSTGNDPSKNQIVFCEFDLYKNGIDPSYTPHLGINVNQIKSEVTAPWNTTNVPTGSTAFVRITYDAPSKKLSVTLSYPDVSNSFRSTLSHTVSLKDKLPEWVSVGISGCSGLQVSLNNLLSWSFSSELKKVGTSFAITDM

In experiment [1] (pNP derivatives (5 μM), FAC, 25 C, TBS pH 7.4), `CC(=O)N[C@H]1[C@@H](Oc2ccc([N+](=O)[O-])cc2)O[C@H](CO)[C@H](O)[C@@H]1O[C@@H]1O[C@H](CO)[C@H](O)[C@H](O)[C@H]1O` [Galβ1-3GalNAcα-pNP, Galβ1-3 GalNAcα-pNP] gave a Ka of 90000 M⁻¹. Moreover, the “affinity of BLL for pNP glycosides (in words)” value (from here on “affinity of BLL”) in experiment [1] is reported as “remarkable affinity”.
As for `CC(=O)N[C@H]1[C@H](Oc2ccc([N+](=O)[O-])cc2)O[C@H](CO)[C@@H](O)[C@@H]1O` [GlcNAcβ-pNP], in experiment [2] (GSL-II, pNP glycosides), the “binding relative to that of the other anomer” value is on record as 1/7. Moreover, the “affinity of GSL-II for pNP glycosides (in words)” value in experiment [2] was “remarkable affinity”. Besides, the “affinity of BLL” value in experiment [1] is on record as “did not show remarkable affinity”.
As for `CC(=O)N[C@H]1[C@@H](Oc2ccc([N+](=O)[O-])cc2)O[C@H](CO)[C@@H](O)[C@@H]1O` [GlcNAcα-pNP], in experiment [2], the Kd is 7.14 µM and the “affinity of GSL-II for pNP glycosides (in words)” value is on record as “strongest affinity”. The “affinity of BLL” value in experiment [1] is reported as “did not show remarkable affinity”.

One may read the Kd as a measure of binding affinity in units of concentration. Low values mean tighter binding, high ones weaker binding.

(Values after patent US20090117599A1, “METHOD OF DETECTING SUGAR CHAINS HAVING GlcNAc TRANSFERRED BY GnT-V” (priority 2005, published 2009).)
